Assay results from US20160220510A1, “ANTIBIOTIC COMPOUNDS THAT INHIBIT BACTERIAL PROTEIN SYNTHESIS” (The Board of Regents of the University of Texas System, priority 2015, published 2016).
Converted amounts (≈) assume the structure as drawn. Structures can show the parent of a compound that is named as a salt. Where two headings read alike, the source gives them in different places.

Columns and labels:
[1] = test system: Pseudomonas aeruginosa hypersensitive strain (ATCC 35151); test: Broth microdilution MIC; format: cell-based; settings: ATCC35151, read-out: MIC P. aeruginosa (hypersensitive)
E. coli tolC mutant = test: Broth microdilution MIC; format: cell-based; settings: Escherichia coli, read-out: MIC E. coli tolC (efflux)
[2] = test system: Enterococcus faecalis (ATCC 29212); test: Broth microdilution MIC; format: cell-based
H. influenzae = test: Time-kill experiments, Gram (−); settings: four-times the MIC, 0 to 24 hours
Protocol: (§1) Time-kill experiments were performed according to the CLSI guidelines M26-A. H. influenzae (ATCC 49766), E. faecalis ATCC 29212, and Staphylococcus aureus (ATCC 29213) were from the American Type Culture Collection (Manassas, Va.). Growth media were Brain Heart Infusion and Trypticase Soy Broth from Remel (Lenexa, Kans.). For the experiments, 10 mL of broth medium was inoculated with 0.1 mL of a fresh overnight culture and grown at 35° C. with shaking (200 rpm) for 2-3 hours. Pre-warmed flasks containing 10 mL of medium alone or 10 mL of medium containing a test compound at 4×MIC were then inoculated with 0.1 mL of the exponentially growing cultures. Samples were removed at 0, 2, 4, 6, and 24 h, and serial dilutions were plated on blood agar to allow for colony enumeration and calculation of the live cell density.
(§2) Time-kill experiments were performed according to the CLSI guideline M26-A to determine the efficacy against both Gram (+) and a Gram (−) organisms. […] The Gram (+) bacteria used was either E. faecalis or S. aureus, while the Gram (−) bacteria was H. influenzae. […] The compounds were tested in these assays at four-times the MIC and between 0 and 24 hours.

[3] = test system: Moraxella catarrhalis (ATCC 25238); test: Broth microdilution MIC; format: cell-based; settings: ATCC25238
[4] = test system: Streptococcus pneumonia (ATCC 49619); test: Broth microdilution MIC; format: cell-based; settings: Streptococcus pneumoniae
[5] = test system: Gram (+) bacteria (E. faecalis or S. aureus); test: Time-kill experiments, Gram (+); settings: four-times the MIC, 0 to 24 hours
Protocol: as §1, §2

[6] = test system: Staphylococcus aureus (ATCC 29213); test: Broth microdilution MIC; format: cell-based; settings: ATCC29213, read-out: MIC S. aureus
[7] = test system: Pseudomonas aeruginosa (ATCC 47085); test: Broth microdilution MIC; format: cell-based
[8] = test system: Haemophilus influenzae (ATCC 49766); test: Broth microdilution MIC; format: cell-based; settings: ATCC49766
P. aeruginosa PheRS = P. aeruginosa PheRS (Pseudomonas aeruginosa, UniProt Q9I0A3+Q9I0A4); test: PheRS tRNA aminoacylation SPA assay; format: biochemical; settings: for Inhibition of Phenylalanyl-tRNA synthetase (PheRS), target found: 132 μM compound
Sequence of P. aeruginosa PheRS (Q9I0A3 whole entry): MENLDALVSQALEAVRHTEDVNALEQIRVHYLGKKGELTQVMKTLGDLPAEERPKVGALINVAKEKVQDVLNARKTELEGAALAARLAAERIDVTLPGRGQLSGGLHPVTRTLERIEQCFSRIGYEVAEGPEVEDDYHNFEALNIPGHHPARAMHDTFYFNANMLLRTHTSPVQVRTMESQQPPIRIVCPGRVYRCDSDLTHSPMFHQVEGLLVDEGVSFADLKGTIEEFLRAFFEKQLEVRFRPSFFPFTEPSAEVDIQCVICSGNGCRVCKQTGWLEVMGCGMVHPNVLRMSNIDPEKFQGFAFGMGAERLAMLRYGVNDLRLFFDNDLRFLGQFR
Sequence of P. aeruginosa PheRS (Q9I0A4 whole entry): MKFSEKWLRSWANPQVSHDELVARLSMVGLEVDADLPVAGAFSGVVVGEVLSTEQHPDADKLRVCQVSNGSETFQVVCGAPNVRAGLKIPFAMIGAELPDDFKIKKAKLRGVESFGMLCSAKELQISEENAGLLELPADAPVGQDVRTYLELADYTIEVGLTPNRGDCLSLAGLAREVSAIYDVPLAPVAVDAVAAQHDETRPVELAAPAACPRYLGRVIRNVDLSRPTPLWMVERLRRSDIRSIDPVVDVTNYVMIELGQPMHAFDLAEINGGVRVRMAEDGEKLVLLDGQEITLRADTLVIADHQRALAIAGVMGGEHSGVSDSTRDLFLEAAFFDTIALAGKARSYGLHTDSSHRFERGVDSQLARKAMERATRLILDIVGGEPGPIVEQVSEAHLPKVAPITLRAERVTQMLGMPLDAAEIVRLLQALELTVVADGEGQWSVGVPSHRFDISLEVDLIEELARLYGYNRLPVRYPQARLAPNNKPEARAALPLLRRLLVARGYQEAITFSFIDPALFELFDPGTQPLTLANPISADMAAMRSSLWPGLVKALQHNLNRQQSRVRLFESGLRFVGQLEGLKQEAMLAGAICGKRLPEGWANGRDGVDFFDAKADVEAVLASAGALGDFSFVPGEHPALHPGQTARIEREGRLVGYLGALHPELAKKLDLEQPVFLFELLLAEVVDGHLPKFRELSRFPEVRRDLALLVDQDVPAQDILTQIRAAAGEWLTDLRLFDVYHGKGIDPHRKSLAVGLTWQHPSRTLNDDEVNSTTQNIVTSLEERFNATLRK
Protocol: SPA assays to determine inhibition of PheRS by chemical compounds were as described in Bullard et al. “Expression and characterization of a human mitochondrial phenylalanyl-tRNA synthetase” 1999, J. Mol. Biol. 288:567-577, which his incorporated herein by reference and in Ribble et al. Exceptions were that the enzyme mix was pre-incubated with 132 μM compound for 15 min prior to addition of tRNA. The reactions were stopped by the addition of 5 μl of 0.5 M EDTA. 400 μg of SPA beads (Ysi poly-L-lysine coated beads, Perkin Elmer) in 150 μl of 300 mM citrate buffer (pH 2.0) were added and the plates were analyzed as above.

E. coli (ATCC 25922) = test: Broth microdilution MIC; format: cell-based; settings: Escherichia coli
[9] = test system: P. aeruginosa aminoacylation/translation (A/T) protein synthesis system (ribosomes, PheRS, EF-Tu, EF-Ts, EF-G); test: aminoacylation/translation (A/T) scintillation proximity assay; format: biochemical, Pseudomonas aeruginosa; settings: all P. aeruginosa components
Protocol: A scintillation proximity assay (SPA) was developed using P. aeruginosa components for the aminoacylation/translation (A/T) assay as described in Ribble et al. The complete assay (50 μl) contained 50 mM Tris-HCl (pH 7.5), 25 mM KCl, 10 mM MgCl2, 0.03 mM spermine, 1.5 mM ATP, 0.5 mM GTP, 40 μM [^3H]Phenylalanine (Phe) (75 cpm/pmol) and 0.3 mg/ml polyU mRNA. To maintain constant levels of ATP and GTP the assay contained a nucleotide regeneration system composed of 4 mM phosphoenolpyruvate (PEP) and 0.025 Units/μl pyruvate kinase (PK). The concentration of ribosomes and proteins in the assay were as follows: ribosome (0.2 μM), PheRS (0.1 μM), EF-Tu (1 μM), EF-Ts (0.05 μM) and EF-G (0.2 μM). These concentrations were arrived at through sequential rounds of optimization: each concentration represents the concentration just below the saturation point for each component of the reaction in the titration.
The screening reactions were carried out in 96 well microtiter plates (Costar). Test compounds were equilibrated by addition of 33 μl of the protein/substrate mix (without tRNA) to 2 μl of chemical compound (3.2 mM) dissolved in 100% DMSO. […] Reactions were stopped by the addition of 5 μl of 0.5 M EDTA. 200 μg of SPA beads (RNA Binding Beads (YSI), Perkin Elmer) in 150 μl of 300 mM citrate buffer (pH 6.2) were added. The plates were analyzed using a 1450 Microbeta (Jet) liquid scintillation and luminescence counter (Wallac). Assays to determine IC50 values were as described above with the test compounds serially diluted from 200 μM to 0.4 μM. The concentration ranges of antibiotics as controls were as follows: spiramycin (0.02 μM to 20.0 μM), tylosin (0.02 μM to 20.0 μM), and fusidic acid (4 μM to 512 μM).

ribosome = test: Determination of molecular target (ribosome by default); format: biochemical, Pseudomonas aeruginosa; settings: no accessory protein inhibited
Protocol: Nitrocellulose binding assays were used to determine inhibition of GDP exchange by EF-Tu as previously described in Bullard et al. “Effects of domain exchanges between Escherichia coli and mammalian mitochondrial EF-Tu on interactions with guanine nucleotides, aminoacyl-tRNA and ribosomes” 1999, Biochim. Biophys. Acta 1446:102-114, which is incorporated herein by reference, with the exception that the enzyme (1 μM) was pre-incubated with 132 μM compound for 15 min prior to the addition of [^3H]GDP. EF-Ts stimulates the exchange of GDP bound by EF-Tu. The ability of compounds to inhibit EF-Ts stimulation of GDP exchange by EF-Tu was measured in assays as described for EF-Tu/GDP exchange with the exceptions that EF-Ts was present at 0.05 μM and the time for the reaction was decreased from 30 min to 30 sec.
Assays for ribosome-dependent GTP hydrolysis by EF-G were carried out in 50 μl reactions containing: 50 mM Tris-HCl (pH 7.5), 10 mM MgCl2, 70 mM NH4Cl, 1 mM dithiothreitol (DTT), 1.8 mM GTP, 0.4 μM P. aeruginosa ribosomes and 0.2 μM EF-G. Final concentrations of compounds in the assays were 132 μM. The amount of GTPase activity was determined by measurement of the amount of Pi liberated using a colorimetric GTPase assay kit (Novus Biologicals) per manufacturer's directions.

[10] = ATCC29212, ATCC 29212, read-out: MIC E. faecalis
[11] = ATCC49619, ATCC 49619, read-out: MIC S. pneumo
[12] = ATCC47085, ATCC 47085, read-out: MIC P. aeruginosa
[13] = ATCC25922, ATCC 25922, read-out: MIC E. coli

With `COC(=O)c1c(C)c2c(c(C)c1O)OC(=O)c1c(C)c(Cl)c(O)c(Cl)c1O2` [Class 2, Methyl 2,4-dichloro-3,8-dihydroxy-1,6,9-trimethyl-11-oxo-11H-dibenzo[b,e][1,4]dioxepine-7-carboxylate] as the compound, how does the MIC [1] read?
Its MIC is 8 µg/mL (≈ 19.4 µM).

And the MIC (E. coli tolC mutant)?
Its MIC is 16 µg/mL (≈ 38.7 µM).

And the MIC [2, 10]?
The MIC was 8 µg/mL (≈ 19.4 µM).

And the “Time-kill mode of action against Gram (−) bacteria” value (“Time-kill mode … (−) bacteria” below) (H. influenzae)?
Its value is “bacteriostatic”.

And the MIC [3]?
Its MIC is 1 µg/mL (≈ 2.42 µM).

What about the MIC [4, 11] of the same compound?
Its MIC is 64 µg/mL (≈ 155 µM).

What about the “Time-kill mode of action against Gram (+) bacteria” value (shortened to “Time-kill mode … (+) bacteria”) [5] of the same compound?
Its value is “bacteriostatic”.

What about the MIC [6] of the same compound?
The MIC was 128 µg/mL (≈ 310 µM).

And the MIC [7, 12]?
The MIC was 128 µg/mL (≈ 310 µM).

And the MIC [8]?
The MIC was 32 µg/mL (≈ 77.4 µM).

What about the IC50 (P. aeruginosa PheRS) of the same compound?
Its IC50 is 9.8 µM.

What about the “Inhibition of Phenylalanyl-tRNA synthetase (PheRS), target found” value (P. aeruginosa PheRS) of the same compound?
Its value is “inhibit”.

What about the MIC (E. coli (ATCC 25922); [13]) of the same compound?
The MIC was > 128 µg/mL.

And the IC50 [9]?
The IC50 was 59 µM.

Which MIC [1] does the source give for `Cc1cc(C)nc(NC(=N)Nc2ccc(OCc3ccc(Cl)cc3)cc2)n1` [Class 6, (4,6-dimethylpyrimidin-2-yl)[({4-[(4-chlorophenyl)methoxy]phenyl}amino)iminomethyl]amine] here?
The MIC was 16 µg/mL (≈ 41.9 µM).

What about the MIC (E. coli tolC mutant) of the same compound?
Its MIC is 16 µg/mL (≈ 41.9 µM).

What about the MIC [2, 10] of the same compound?
Its MIC is 16 µg/mL (≈ 41.9 µM).

What about the “Time-kill mode … (−) bacteria” value (H. influenzae) of the same compound?
Its value is “bactericidal”.

What about the MIC [3] of the same compound?
The MIC was 64 µg/mL (≈ 168 µM).

What about the MIC [4, 11] of the same compound?
The MIC was 32 µg/mL (≈ 83.8 µM).

And the “Time-kill mode … (+) bacteria” value [5]?
Its value is “bactericidal”.

What about the MIC [6] of the same compound?
Its MIC is 32 µg/mL (≈ 83.8 µM).

What about the MIC [7, 12] of the same compound?
Its MIC is 64 µg/mL (≈ 168 µM).

And the MIC [8]?
The MIC was 32 µg/mL (≈ 83.8 µM).

What about the MIC (E. coli (ATCC 25922); [13]) of the same compound?
The MIC was 64 µg/mL (≈ 168 µM).

What about the “Target found: ribosomal inhibitor” value (ribosome) of the same compound?
The value was “ribosomal inhibitor”.

And the IC50 [9]?
The IC50 was 25.8 µM.

Which results are given for `O=C(N/N=C/c1ccc([N+](=O)[O-])o1)c1cc([N+](=O)[O-])cc([N+](=O)[O-])c1O` [Class 4, N-[(1E)-2-(5-nitro(2-furyl))-1-azavinyl](2-hydroxy-3,5-dinitrophenyl)carboxamide]?
MIC [1]: 32 µg/mL (≈ 87.6 µM); MIC (E. coli tolC mutant): 2 µg/mL (≈ 5.48 µM); MIC [2, 10]: 128 µg/mL (≈ 350 µM); Time-kill mode of action against Gram (−) bacteria (H. influenzae): bacteriostatic; MIC [3]: 32 µg/mL (≈ 87.6 µM); MIC [4, 11]: 128 µg/mL (≈ 350 µM); Time-kill mode of action against Gram (+) bacteria [5]: bacteriostatic; MIC [6]: 32 µg/mL (≈ 87.6 µM); MIC [7, 12]: 32 µg/mL (≈ 87.6 µM); MIC [8]: 32 µg/mL (≈ 87.6 µM); IC50 (P. aeruginosa PheRS): 40 µM; MIC (E. coli (ATCC 25922); [13]): > 128 µg/mL; IC50 [9]: 50.2 µM

Which MIC [1] does the source give for `NC(N)=NN=C(/C=C/c1ccc([N+](=O)[O-])o1)/C=C/c1ccc([N+](=O)[O-])o1` [Class 5, 2-[1,5-bis(5-nitrofuran-2-yl)penta-1,4-dien-3-ylideneamino]guanidine hydrochloride] here?
Its MIC is 4 µg/mL.

What about the MIC (E. coli tolC mutant) of the same compound?
The MIC was 2 µg/mL.

And the MIC [2, 10]?
The MIC was 128 µg/mL.

And the “Time-kill mode … (−) bacteria” value (H. influenzae)?
Its value is “bactericidal”.

What about the MIC [3] of the same compound?
Its MIC is 64 µg/mL.

What about the MIC [4, 11] of the same compound?
The MIC was 32 µg/mL.

What about the “Time-kill mode … (+) bacteria” value [5] of the same compound?
The value was “bactericidal”.

What about the MIC [6] of the same compound?
Its MIC is 16 µg/mL.

And the MIC [7, 12]?
The MIC was 128 µg/mL.

And the MIC [8]?
Its MIC is 16 µg/mL.

And the MIC (E. coli (ATCC 25922); [13])?
Its MIC is > 128 µg/mL.

And the IC50 [9]?
The IC50 was 27.5 µM.

For `NC(N)=NN=C(/C=C/c1ccc([N+](=O)[O-])o1)/C=C/c1ccc([N+](=O)[O-])o1` [2-[1,5-bis(5-nitrofuran-2-yl)penta-1,4-dien-3-ylideneamino]guanidine hydrochloride], which “Target found: ribosomal inhibitor” value (ribosome) is on record?
Its value is “ribosomal inhibitor”.

How did the “Inhibition of Phenylalanyl-tRNA synthetase (PheRS), target found” value (P. aeruginosa PheRS) turn out when `O=C(N/N=C/c1ccc([N+](=O)[O-])o1)c1cc([N+](=O)[O-])cc([N+](=O)[O-])c1O` [N-[(1E)-2-(5-nitro(2-furyl))-1-azavinyl](2-hydroxy-3,5-dinitrophenyl)carboxamide] was run?
Its value is “inhibit”.

What does the source list for `O=C(/C=C/c1ccccc1)c1ccc(O)cc1O` [Class 1, (2E)-1-(2,4-Dihydroxyphenyl)-3-phenyl-2-propen-1-one]?
MIC [1]: > 128 µg/mL; MIC (E. coli tolC mutant): > 128 µg/mL; MIC ([2]; ATCC29212, read-out: MIC E. faecalis): > 128 µg/mL; Time-kill mode of action against Gram (−) bacteria (H. influenzae): bactericidal; MIC [3]: 64 µg/mL (≈ 266 µM); MIC ([4]; ATCC49619, read-out: MIC S. pneumo): > 128 µg/mL; Time-kill mode of action against Gram (+) bacteria [5]: bactericidal; MIC [6]: 128 µg/mL (≈ 533 µM); MIC ([7]; ATCC47085, read-out: MIC P. aeruginosa): > 128 µg/mL; MIC [8]: 32 µg/mL (≈ 133 µM); IC50 (P. aeruginosa PheRS): 37 µM; Inhibition of Phenylalanyl-tRNA synthetase (PheRS), target found (P. aeruginosa PheRS): inhibit; MIC (E. coli (ATCC 25922); ATCC25922, read-out: MIC E. coli): > 128 µg/mL; IC50 [9]: 33 µM
